Earlier results in PMC5108082, “Pharmacokinetics, toxicity, and cytochrome P450 modulatory activity of plumbagin” (BMC Pharmacology & Toxicology, 2016).

Key:
[1] = tested on: 3D7 chloroquine-sensitive P. falciparum; settings: 3D7 clone; read-out: mean IC50; cited from earlier work
[2] = tested on: K1 chloroquine-resistant P. falciparum; settings: K1 clone; read-out: mean IC50; cited from earlier work

Structure (SMILES)	IC50 [1]	IC50 [2]
C=C[C@H]1C[N@@]2CC[C@H]1C[C@H]2[C@H](O)c1ccnc2ccc(OC)cc12 [quinine]	0.052 µM	0.133 µM
C[C@H]1[C@H](OC(=O)CCC(=O)O)O[C@@H]2O[C@@]3(C)CC[C@H]4[C@H](C)CC[C@@H]1[C@@]24OO3 [artesunate]	0.002 µM	0.0015 µM
CCN(CC)CCCC(C)Nc1ccnc2cc(Cl)ccc12 (centres unmarked) [chloroquine]	0.008 µM	0.13 µM
OC(c1cc(C(F)(F)F)nc2c(C(F)(F)F)cccc12)C1CCCCN1 (centres unmarked) [mefloquine]	0.01 µM	0.012 µM
